# Test results from patent US20230011869A1 (Hoffmann-La Roche Inc., priority 2018, published 2023).
# Structures can show the parent of a compound that is named as a salt.
# System: Acinetobacter baumannii ATCC17978
# Assay: Antimicrobial susceptibility testing: 90% growth inhibitory concentration (IC90) determination, Iso-Sensitest broth
# Assay type: cell-based
# Conditions: 90% growth inhibitory concentration, Acinetobacter baumannii ATCC17978, Iso-Sensitest broth, OD 600 nm over 16 h; read-out: ATCC17978 IC90
# Procedure, shortened: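 A. baumannii ATCC17978 grown in Iso-Sensitest broth across 10 compound concentrations at 35±2 °C.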
row,Compound,IC90 [nM]
1,"CNCC(=O)N1CCN(C(=O)c2ccc(Nc3nccn4c(-c5ccc(OC)c(Cl)c5)cnc34)cc2C)CC1 [Example 322, 1-[4-[4-[[3-(3-chloro-4-methoxyphenyl)imidazo[1,2-a]pyrazin-8-yl]amino]-2-methylbenzoyl]piperazin-1-yl]-2-(methylamino)ethanone; hy-drochloride]",280

# Same assay, conditions: Acinetobacter baumannii, ATCC17978, 16 h, read-out: ATCC17978 IC90, 90% growth inhibitory concentration, Acinetobacter baumannii ATCC17978, Iso-Sensitest broth, OD 600 nm over 16 h
row,Compound,IC90 [nM]
1,"Cc1cc(Nc2nccn3c(-c4ccc(OC(F)F)cc4)cnc23)ccc1C(=O)N1CCC(C(=O)N(C)CC(O)CO)CC1 (stereo not shown) [Example 313, 1-[4-[[3-[4-(difluoromethoxy)phenyl]imi-dazo[1,2-a]pyrazin-8-yl]amino]-2-methylbenzoyl]-N-(2,3-dihydroxypropyl)-N-methylpiperidine-4-carboxamide]",230
2,"CCNCC(=O)N1CCN(C(=O)c2ccc(Nc3nccn4c(-c5ccc(OC(F)F)cc5)cnc34)cc2C)CC1 [Example 314, 1-[4-[4-[[3-[4-(difluoromethoxy)phenyl]imi-dazo[1,2-a]pyrazin-8-yl]amino]-2-methylbenzoyl]piperazin-1-yl]-2-(ethylamino)ethanone; hydro-chloride]",230
3,"Cc1cc(Nc2nccn3c(-c4ccc(OC(F)F)cc4)cnc23)ccc1C(=O)N1CCN(C(=O)[C@H]2CNCCO2)CC1 [Example 315, [4-[[3-[4-(difluoromethoxy)phenyl]imi-dazo[1,2-a]pyrazin-8-yl]amino]-2-methylphenyl]-[4-[(2R)-morpholine-2-carbonyl]piperazin-1-yl]methanone; hydrochloride]",240
4,"Cc1cc(Nc2nccn3c(-c4ccc(OC(F)F)cc4)cnc23)ccc1C(=O)N1CCN(C(=O)CNC(=N)N)CC1 [Example 316, 1-[2-[4-[4-[[3-[4-(difluoromethoxy)phenyl]imi-dazo[1,2-a]pyrazin-8-yl]amino]-2-methylbenzoyl]piperazin-1-yl]-2-oxoethyl]guanidine; formic acid]",240
5,"Cc1cc(Nc2nccn3c(-c4ccc(OC(F)F)cc4)cnc23)ccc1C(=O)N1CCN(C(=O)[C@@H](N)C(C)C)CC1 [Example 317, (2S)-2-amino-1-[4-[4-[[3-[4-(difluoromethoxy)phenyl]imi-dazo[1,2-a]pyrazin-8-yl]amino]-2-methylbenzyol]piperazin-1-yl]-3-methylbutan-1-one; hydrochloride]",240
6,"Cc1cc(Nc2nccn3c(-c4ccc(OC(F)F)cc4)cnc23)ccc1C(=O)N1CCC(C(=O)N2C3CCC2CNC3)CC1 [Example 318, [4-(3,8-diazabicyclo[3.2.1]octane-8-carbonyl)piperidin-1-yl]-[4-[[3-[4-(difluoromethoxy)phenyl]imi-dazo[1,2-a]pyrazin-8-yl]amino]-2-methylphenyl]methanone; hy-drochloride]",250
7,"Cc1cc(Nc2nccn3c(-c4ccc(OC(F)F)cc4)cnc23)ccc1C(=O)N1CCN(C(=O)[C@H]2[C@@H]3CNC[C@@H]32)CC1 [Example 319, [4-[[3-[4-(difluoromethoxy)phenyl]imi-dazo[1,2-a]pyrazin-8-yl]amino]-2-methylphenyl]-[4-[rac-(1R,5S)-3-azabicyclo[3.1.0]hexane-6-carbonyl]piperazin-1-yl]methanone; hydrochloride]",260
8,"CNCC(=O)N1CCN(C(=O)c2ccc(Nc3nccn4c(-c5ccc(OC(F)F)cc5)cnc34)cc2C)CC1 [Example 320, 1-[4-[4-[[3-[4-(difluoromethoxy)phenyl]imi-dazo[1,2-a]pyrazin-8-yl]amino]-2-methylbenzoyl]piperazin-1-yl]-2-(methylamino)ethanone; hy-drochloride]",280
9,"CNCCNC(=O)C1CCN(C(=O)c2ccc(Nc3nccn4c(-c5ccc(OC)c(F)c5F)cnc34)cc2C)CC1 [Example 321, 1-[4-[[3-(2,3-difluoro-4-methoxyphenyl)imidazo[1,2-a]pyrazin-8-yl]amino]-2-methylbenzoyl]-N-[2-(methylamino)ethyl]piperidine-4-carboxamide; hydrochloride]",280
10,"Cc1cc(Nc2nccn3c(-c4ccc(OC(F)F)cc4)cnc23)ccc1C(=O)N1CCC(C(=O)N2CCNC(C)(C)C2)CC1 [Example 323, [4-[[3-[4-(difluoromethoxy)phenyl]imi-dazo[1,2-a]pyrazin-8-yl]amino]-2-methylphenyl]-[4-(3,3-dimethylpiperazin-1-carbonyl)piperidin-1-yl]methanone; hydrochloride]",300
11,"Cc1cc(Nc2nccn3c(-c4ccc(OC(F)F)cc4)cnc23)ccc1C(=O)N1CCN(C(=O)C2(F)CCNCC2)CC1 [Example 324, [4-[[3-[4-(difluoromethoxy)phenyl]imi-dazo[1,2-a]pyrazin-8-yl]amino]-2-methylphenyl]-[4-(4-fluoropiperidine-4-carbonyl)piperazin-1-yl]methanone]",330
12,"Cc1cc(Nc2nccn3c(-c4ccc(OC(F)F)cc4)cnc23)ccc1C(=O)N1CCC(C(=O)N2CCCNCC2)CC1 [Example 325, [4-(1,4-diazepane-1-carbonyl)piperidin-1-yl]-[4-[[3-[4-(difluoromethoxy)phenyl]imi-dazo[1,2-a]pyrazin-8-yl]amino]-2-methylphenyl]methanone; hy-drochloride]",340
13,"Cc1cc(Nc2nccn3c(-c4ccc(OC(F)F)cc4)cnc23)ccc1C(=O)N1CCC(C(=O)N2C[C@@H](O)[C@@H](O)[C@@H](O)C2)CC1 [Example 326, [4-[[3-[4-(difluoromethoxy)phenyl]imi-dazo[1,2-a]pyrazin-8-yl]amino]-2-methylphenyl]-[4-[rac-(3R,5S)-3,4,5-trihydroxypiperidine-1-carbonyl]piperidin-1-yl]methanone]",360
14,"Cc1cc(Nc2nccn3c(-c4ccc(OC(F)F)cc4)cnc23)ccc1C(=O)N1CCN(C(=O)C[C@H](C)N)CC1 [Example 327, (3S)-3-amino-1-[4-[4-[[3-[4-(difluoromethoxy)phenyl]imi-dazo[1,2-a]pyrazin-8-yl]amino]-2-methylbenzoyl]piperazin-1-yl]butan-1-one; hydrochloride]",380
15,"COc1ccc(-c2cnc3c(Nc4ccc(C(=O)N5CCC(C(=O)NCC6CNC6)CC5)c(C)c4)nccn23)cc1F [Example 328, N-(azetidin-3-ylmethyl)-1-[4-[[3-(3-fluoro-4-methoxyphenyl)imidazo[1,2-a]pyrazin-8-yl]amino]-2-methylbenzoyl]piperidine-4-carboxamide; hydrochloride]",390
16,"Cc1cc(Nc2nccn3c(-c4ccc(OC(F)F)cc4)cnc23)ccc1C(=O)N1CCN(C(=O)CC(C)(C)N)CC1 [Example 329, 3-amino-1-[4-[4-[[3-[4-(difluoromethoxy)phenyl]imi-dazo[1.2-a]pyrazin-8-yl]amino]-2-methylbenzoyl]piperazin-1-yl]-3-methylbutan-1-one; hydrochloride]",400
17,"CCc1cc(Nc2nccn3c(-c4ccc(OC)c(F)c4)cnc23)ccc1C(=O)N1CCC(C(=O)NCCNC)CC1 [Example 330, 1-[2-ethyl-4-[[3-(3-fluoro-4-methoxyphenyl)imidazo[1,2-a]pyrazin-8-yl]amino]benzoyl]-N-[2-(methylamino)ethyl]piperidine-4-carboxamide; hydrochloride]",400
18,"CNCCC(=O)N1CCN(C(=O)c2ccc(Nc3nccn4c(-c5ccc(OC(F)F)cc5)cnc34)cc2C)CC1 [Example 332, 1-[4-[4-[[3-[4-(difluoromethoxy)phenyl]imi-dazo[1,2-a]pyrazin-8-yl]amino]-2-methylbenzoyl]piperazin-1-yl]-3-(methylamino)propan-1-one; hydrochloride]",410
19,"CN[C@H](C)C(=O)N1CCN(C(=O)c2ccc(Nc3nccn4c(-c5ccc(OC(F)F)cc5)cnc34)cc2C)CC1 [Example 334, (2R)-1-[4-[4-[[3-[4-(difluoromethoxy)phenyl]imi-dazo[1,2-a]pyrazin-8-yl]amino]-2-methylbenzoyl]piperazin-1-yl]-2-(methylamino)propan-1-one; hydrochloride]",430
20,"Cc1cc(Nc2nccn3c(-c4ccc(OC(F)F)cc4)cnc23)ccc1C(=O)N1CCN(C(=O)C2CNC2)CC1 [Example 335, [4-(azetidine-3-carbonyl)piperazin-1-yl]-[4-[[3-[4-(difluoromethoxy)phenyl]imi-dazo[1,2-a]pyrazin-8-yl]amino]-2-methylphenyl]methanone; hy-drochloride]",450
21,"Cc1cc(Nc2nccn3c(-c4ccc(OC(F)F)cc4)cnc23)ccc1C(=O)N1CCN(C(=O)C[C@@H]2CCCN2)CC1 [Example 336, 1-[4-[4-[[3-[4-(difluoromethoxy)phenyl]imi-dazo[1,2-a]pyrazin-8-yl]amino]-2-methylbenzoyl]piperazin-1-yl]-2-[(2S)-pyrrolidin-2-yl]ethanone]",460
22,"Cc1cc(Nc2nccn3c(-c4ccc(OC(F)F)cc4)cnc23)ccc1C(=O)N1CCN(C(=O)c2ccc(CN3CCNCC3)cc2)CC1 [Example 337, [4-[4-[[3-[4-(difluoromethoxy)phenyl]imi-dazo[1,2-a]pyrazin-8-yl]amino]-2-methylbenzoyl]piperazin-1-yl]-[4-(piperazin-1-ylmethyl)phenyl]methanone; hydrochloride]",470

# Same assay, conditions: read-out: ATCC17978 IC90; 90% growth inhibitory concentration, Acinetobacter baumannii ATCC17978, Iso-Sensitest broth, OD 600 nm over 16 h
row,Compound,IC90 [nM]
1,"CNCC(=O)N1CCN(C(=O)c2ccc(Nc3nccn4c(-c5ccc(OC(F)F)cc5)cnc34)cc2C)CC1 [Example 331, 1-[4-[4-[[3-[4-(difluoromethoxy)phenyl]imi-dazo[1,2-a]pyrazin-8-yl]amino]-2-methylbenzoyl]piperazin-1-yl]-2-(methylamino)ethanone]",410
2,"Cc1cc(Nc2nccn3c(-c4ccc(OC(F)F)cc4)cnc23)ccc1C(=O)N1CCN(C(=O)CNC(=N)N)CC1 [Example 333, 1-[2-[4-[4-[[3-[4-(difluoromethoxy)phenyl]imi-dazo[1,2-a]pyrazin-8-yl]amino]-2-methylbenzoyl]piperazin-1-yl]-2-oxoethyl]guanidine]",410
